The values below come from US20080081801A1, “PORPHYRIN OXYGEN INFUSION FOR INCREASING CONCENTRATIONS IN TUMOR TISSUES” (priority 2002, published 2008).

This assay concerns Ascites hepatoma LY80. In words: Oxygen partial pressure in tumor tissues of tumor-bearing rats after intra-arterial injection of the sample (phosphorescence quenching, PdPor, OxySpot). It is filed as in vivo, Donryu rats. The settings on record: oxygen-saturated sample.

Description: Animals with cancer were prepared by transplanting tumor cells in desired sites of laboratory animals such as, for example, rats, hamsters, rabbits or beagles.
Rats were bred for several days until tumors develop and then subjected to experiments under anesthesia (e.g., using Nembutal, diethyl ether or halothane anesthetic gas). Rats were intubated through the cervical trachea and ventilated under positive pressure by a respirator. A polyethylene catheter was inserted into a left carotid artery so that a distal end of the catheter is located at a position short of a bifurcation of the common iliac artery, and then backward cannulation was carried out to provide an administration rout of sample in the descending aorta.
The oxygen partial pressure in the tumor tissues may be determined by intravenously injecting a phosphorescent probe (palladium coproporphyrin (PdPor)), irradiating light, and monitoring a phosphorescence quenching time with an oxygen partial pressure monitor. PdPor is intravenously injected through a tail vein at 5-20 minutes before administration of the sample. […] The oxygen partial pressure in the tumor site of the right leg was measured at 5 to 30 points in air or an atmosphere containing 99% oxygen with a device for measurement of an oxygen partial pressure (e.g., OxySpot (Trademark) made by Medical System Corp.), and served as controls. […]

With “bovine serum albumin: serum albumin, injected oxygen-saturated without porphyrin”, the “change in the oxygen partial pressure (PO2) in the tumor tissue” value is “no change”.
